# Laboratory results taken from US12390441B2, “Immunomodulating o-het/aryl azalides” (Zoetis Services LLC, priority 2020, dated 2025).
# Key:
# TNF-α = assay: Whole blood assay, LPS stimulation, MSD cytokine detection; assay type: cell-based; conditions: Bos taurus, fresh whole bovine blood
# IL-1β = assay: as above; assay type: cell-based, bovine; conditions: fresh whole bovine blood, LPS stimulation; drug concentration giving overstimulation (OS) of IL-1β
# P. multocida 46572 = assay: In vivo mouse lung infection challenge model (murine); set-up: species or system CD-1 female mice; conditions: for % Survival: 46572, sc, 20 mg/kg, 240 h
# Procedure: The challenge organism was P. multocida 46572. Target challenge concentration was 5×10^2 CFU/mouse. Isolated colonies from overnight growth (37° C. with 5% CO2) on trypticase soy agar (TSA II) blood plates were transferred to room temperature Brain Heart Infusion Broth (BHIB). The broth culture was incubated 3.5-4 hours to approximately mid-log phase of growth, as measured by forward light scatter at 600 nm (OD600, 0.200). The culture was centrifuged to collect the bacterial pellet. The pellet was re-suspended in BHIB and adjusted to provide an approximate concentration of 2.7 log^10 colony forming units (CFU) in 0.04 mL at the highest concentration. The challenge inoculum concentration was confirmed by serial dilutions of the inoculum for CFU enumeration. On Day −5, CD-1 female mice were received. Mice were given standard rodent diet and water ad libitum. On Day 0, bacterial inoculum (0.04 mL) was administered to each mouse (n=36) intranasally. Compounds of the invention were dosed at 20 mg/kg (0.1 mL) in a buffered (˜pH 5.4) propylene glycol, monothioglycerol and water solution by subcutaneous injection. Animals were observed from Days 1-10. The study was terminated on Day 10. In addition, some treatment groups were sampled at 6, 24, and 48 hours post bacterial challenge for RNA sequence analysis of lung tissue.
# The murine efficacy model (P. multocida challenge) was optimized, and the treatment group size was powered to be able to observe statistically significant improvement of survival to expected ranges for immunomodulatory compounds. The experimental design was a randomized complete block design. Mice were individually identified and treatment groups comingled within a cage, with every treatment group equally represented across cages. Mortality was the primary variable. Mortality data was analyzed using a generalized mixed model with fixed effect of treatment and random effect of block. Survival time was also analyzed using the SAS PHREG (survival analysis) procedure to examine whether there were significant differences between treatment groups and the control group. Numerous compounds of the invention and M9 (positive control) were tested in this model at a dose of 20 mg/kg (Table 3). Typical percent survival for no treatment control is in the range of 0-20% based on study to study variation in challenge inoculum and rate of infection. […] Mouse survival for M9 was about 90-100%, further supporting its residual antibacterial properties against the bacterial strain. Harmonized survival accounts for % survival relative to vehicle (“−” control) and M9 (“+” control)) survival data (Table 3).
# IL-6 = assay: Whole blood assay, LPS stimulation, MSD cytokine detection; assay type: cell-based; conditions: Bos taurus, fresh whole bovine blood
SMILES,IC50 (TNF-α) [µM],IL-1ß OS of LPS (IL-1β) [µM],% Survival (P. multocida 46572) [%],IC50 (IL-6) [µM],"clinical efficacy, P. multocida infection in mice (P. multocida 46572; mouse, in vivo)"
"CC[C@H]1OC(=O)[C@H](C)[C@@H](O[C@H]2C[C@@](C)(OC)[C@@H](O)[C@H](C)O2)[C@H](C)[C@@H](O[C@@H]2O[C@H](C)C[C@H](NC)[C@H]2Oc2ccccc2)[C@](C)(O)C[C@@H](C)CN(C)[C@H](C)[C@@H](O)[C@]1(C)O [Example A-26, (2R,3S,4R,5R,8R,10R,11R,12S,13S,14R)-2-ethyl-3,4,10-trihydroxy-13-(((2R,4R,5S,6S)-5-hydroxy-4-methoxy-4,6-dimethyltetrahydro-2H-pyran-2-yl)oxy)-3,5,6,8,10,12,14-heptamethyl-11-(((2S,3R,4S,6R)-6-methyl-4-(methylamino)-3-phenoxytetrahydro-2H-pyran-2-yl)oxy)-1-oxa-6-azacyclopentadecan-15-one]",20,16,1,,
"CC[C@H]1OC(=O)[C@H](C)[C@@H](O)[C@H](C)[C@@H](O[C@@H]2O[C@H](C)C[C@H](NC)[C@H]2Oc2ccc(F)cc2)[C@](C)(O)C[C@@H](C)CN[C@H](C)[C@@H](O)[C@]1(C)O [Example B-4, (2R,3S,4R,5R,8R,10R,11R,12S,13S,14R)-2-ethyl-11-(((2S,3R,4S,6R)-3-(4-fluorophenoxy)-6-methyl-4-(methylamino)tetrahydro-2H-pyran-2-yl)oxy)-3,4,10,13-tetrahydroxy-3,5,8,10,12,14-hexamethyl-1-oxa-6-azacyclopentadecan-15-one]",50,100,0,50,clinically efficacious
"CC[C@H]1OC(=O)[C@H](C)[C@@H](O)[C@H](C)[C@@H](O[C@@H]2O[C@H](C)C[C@H](N(C)C(=O)N(C)c3ccccc3)[C@H]2Oc2ccc(OC)cc2)[C@](C)(O)C[C@@H](C)CN[C@H](C)[C@@H](O)[C@]1(C)O [Example C-1, 1-((2S,3R,4S,6R)-2-(((2R,3S,4R,5R,8R,10R,11R,12S,13S,14R)-2-ethyl-3,4,10,13-tetrahydroxy-3,5,8,10,12,14-hexamethyl-15-oxo-1-oxa-6-azacyclopentadecan-11-yl)oxy)-3-(4-methoxyphenoxy)-6-methyltetrahydro-2H-pyran-4-yl)-1,3-dimethyl-3-phenylurea]",8,16,33,19,
"CC[C@H]1OC(=O)[C@H](C)[C@@H](O)[C@H](C)[C@@H](O[C@@H]2O[C@H](C)C[C@H](N(C)C(=O)N(C)c3ccccc3)[C@H]2Oc2ccccc2)[C@](C)(O)C[C@@H](C)CN[C@H](C)[C@@H](O)[C@]1(C)O [Example C-2, 1-((2S,3R,4S,6R)-2-(((2R,3S,4R,5R,8R,10R,11R,12S, 13S, 14R)-2-ethyl-3,4,10,13-tetrahydroxy-3,5,8,10,12,14-hexamethyl-15-oxo-1-oxa-6-azacyclopentadecan-11-yl)oxy)-6-methyl-3-phenoxytetrahydro-2H-pyran-4-yl)-1,3-dimethyl-3-phenylurea]",27,16,54,32,
"CCCNC[C@]1(O)[C@H](C)O[C@@H](O[C@H]2[C@H](C)[C@@H](O[C@@H]3O[C@H](C)C[C@H](N(C)C)[C@H]3Oc3ccccc3)[C@](C)(O)C[C@@H](C)CN[C@H](C)[C@@H](O)[C@](C)(O)[C@@H](CC)OC(=O)[C@@H]2C)C[C@@]1(C)OC [Example E-3, (2R,3S,4R,5R,8R,10R,11R,12S,13S,14R)-11-(((2S,3R,4S,6R)-4-(dimethylamino)-6-methyl-3-phenoxytetrahydro-2H-pyran-2-yl)oxy)-2-ethyl-3,4,10-trihydroxy-13-(((2R,4R,5S,6S)-5-hydroxy-4-methoxy-4,6-dimethyl-5-((propylamino)methyl)tetrahydro-2H-pyran-2-yl)oxy)-3,5,8,10,12,14-hexamethyl-1-oxa-6-azacyclopentadecan-15-one]",8,13,37,,
"CCCNC[C@]1(O)[C@H](C)O[C@@H](O[C@H]2[C@H](C)[C@@H](O[C@@H]3O[C@H](C)C[C@H](NC)[C@H]3Oc3ccc(Cl)nc3)[C@](C)(O)C[C@@H](C)CN[C@H](C)[C@@H](O)[C@](C)(O)[C@@H](CC)OC(=O)[C@@H]2C)C[C@@]1(C)OC [Example E-8, (2R,3S,4R,5R,8R,10R,11R,12S,13S,14R)-11-(((2S,3R,4S,6R)-3-((6-chloropyridin-3-yl)oxy)-6-methyl-4-(methylamino)tetrahydro-2H-pyran-2-yl)oxy)-2-ethyl-3,4,10-trihydroxy-13-(((2R,4R,5S,6S)-5-hydroxy-4-methoxy-4,6-dimethyl-5-((propylamino)methyl)tetrahydro-2H-pyran-2-yl)oxy)-3,5,8,10,12,14-hexamethyl-1-oxa-6-azacyclopentadecan-15-one]",25,100,36,110,
"CCCNC[C@]1(O)[C@H](C)O[C@@H](O[C@H]2[C@H](C)[C@@H](O[C@@H]3O[C@H](C)C[C@H](NC)[C@H]3Oc3ncc(Cl)cn3)[C@](C)(O)C[C@@H](C)CN[C@H](C)[C@@H](O)[C@](C)(O)[C@@H](CC)OC(=O)[C@@H]2C)C[C@@]1(C)OC [Example E-30, (2R,3S,4R,5R,8R,10R,11R,12S,13S,14R)-11-(((2S,3R,4S,6R)-3-((5-chloropyrimidin-2-yl)oxy)-6-methyl-4-(methylamino)tetrahydro-2H-pyran-2-yl)oxy)-2-ethyl-3,4,10-trihydroxy-13-(((2R,4R,5S,6S)-5-hydroxy-4-methoxy-4,6-dimethyl-5-((propylamino)methyl)tetrahydro-2H-pyran-2-yl)oxy)-3,5,8,10,12,14-hexamethyl-1-oxa-6-azacyclopentadecan-15-one]",7,13,22,,
"CCCNC[C@]1(O)[C@H](C)O[C@@H](O[C@H]2[C@H](C)[C@@H](O[C@@H]3O[C@H](C)C[C@H](NC)[C@H]3Oc3ccc(C#N)cc3)[C@](C)(O)C[C@@H](C)CN[C@H](C)[C@@H](O)[C@](C)(O)[C@@H](CC)OC(=O)[C@@H]2C)C[C@@]1(C)OC [Example E-111, 4-(((2S,3R,4S,6R)-2-(((2R,3S,4R,5R,8R,10R,11R,12S,13S,14R)-2-ethyl-3,4,10-trihydroxy-13-(((2R,4R,5S,6S)-5-hydroxy-4-methoxy-4,6-dimethyl-5-((propylamino)methyl)tetrahydro-2H-pyran-2-yl)oxy)-3,5,8,10,12,14-hexamethyl-15-oxo-1-oxa-6-azacyclopentadecan-11-yl)oxy)-6-methyl-4-(methylamino)tetrahydro-2H-pyran-3-yl)oxy)benzonitrile]",9,80,22,90,
